Data reported in PubChem BioAssay AID602267 (Broad Institute, 2012).
Calls of active or inactive are those of the source.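 How the source made its calls: active means signal falls with dose and the fitted half-maximal concentration is at or below twice the top valid tested dose; inconclusive means flat curve with 30 to 70% inhibition, or poor fit; inactive means wrong direction, flat within 30%, or potency beyond limit.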

Target: Golgi-associated PDZ and coiled-coil motif-containing protein (Homo sapiens) (UniProt Q9HD26)
Test: blockers of CAL PDZ ligand groove binding – biochemical, fluorescence polarization, untagged CAL PDZ, cherry-pick, dose response (AID 602267)
Settings: purified CAL PDZ, TMR-peptide fluorescence polarization, 1 h

| SMILES | AC50 |
| --- | --- |
| COc1ccc(OC)c(-c2c3cc(O)c(=O)cc-3oc3cc(O)c(O)cc23)c1 | 21.4 µM |
| COC(=O)c1ccccc1-c1c2ccc(=N)cc-2oc2cc(N)ccc12 | 2.03 µM |

Same assay, conditions: purified CAL PDZ, TMR-peptide fluorescence polarization, 1 h; at 16 µM (top of the series)

| SMILES | activity change, negative = inhibition |
| --- | --- |
| C=CCOc1c(Cl)cc(CNn2cn[nH]c2=S)cc1OC | inactive |
| Oc1ccccc1N=Cc1c(O)ccc2oc3c(c12)CCCC3 | inactive |

Same assay, conditions: purified CAL PDZ, TMR-peptide fluorescence polarization, 1 h; at 50 µM (top of the series)

| SMILES | activity change, negative = inhibition |
| --- | --- |
| FC(F)(F)c1cc(-c2cccs2)nc2ncnn12 | inactive |
| COCCOC(=O)c1c(C)oc2ccc(OS(C)(=O)=O)cc12 | inactive |
| Nc1ccc(N(CCO)CCO)cc1 | inactive |
| CSc1cccc(NC(=O)N2CCCC(CNS(=O)(=O)Cc3ccccc3)C2)c1 (stereo unspecified) | inactive |
| CCOc1ccc(C(=O)NCC(=O)N2CCC(C)CC2)cc1OCC | inactive |
| O=C(C=Cc1ccccc1)c1cc(Br)ccc1O | inactive |
| O=C(NCc1cccnc1)c1ccc(Cn2c(=S)[nH]c3ccc(Br)cc3c2=O)cc1 | inactive |
| O=C(NCCc1cnc[nH]1)c1cccs1 | inactive |
| S=C(NCCc1ccccc1)N1CCn2cccc2C1c1cccnc1 (stereo unspecified) | inactive |
| CS(=O)(=O)N1CCN(C(=O)c2ccc3c(c2)OCCO3)CC1 | inactive |
| Cc1ccc(SCC(=O)NCc2ccc(F)cc2)cc1 | inactive |
| CCCCC(CCC(=O)Nc1nccs1)C(=O)O (stereo unspecified) | inactive |
| O=C(OCc1ccc(Br)cc1)c1cccnc1 | inactive |
| Cc1ccc(Cl)c2c(N=Nc3ccccc3)c(O)[nH]c12 | inactive |
| Cc1ccnc(SCC(=O)N2CCC(C(N)=O)CC2)n1 | inactive |
| O=C1OC2(CCCCC2)OC(=O)C1=CNc1nc2ccccc2s1 | inactive |
| O=C(CCN1C(=O)c2ccccc2C1=O)CN1CCOCC1 | inactive |
| Cc1ccccc1N1CCN(S(=O)(=O)c2ccccc2)CC1 | inactive |
| Cc1c(Cl)c(C(F)(F)F)nn1CC(=O)NCc1ccco1 | inactive |
| CC1(C2CC2)NC(=O)N(CC(=O)NCC(=O)Nc2ccc(F)c(F)c2F)C1=O (stereo unspecified) | inactive |
| Cc1ccc(S(=O)(=O)N2CCN(C(=O)c3ccccn3)CC2)cc1 | inactive |
| CCOc1ccc(C(=O)NC2CC3CCCC(C2)N3Cc2ccccc2)cc1 (stereo unspecified) | inactive |
| Cc1ccc2nc3c(nc2c1)-c1ccccc1C3=O | inactive |

| SMILES | activity change, negative = inhibition |
| --- | --- |
| COc1ccc(C(=O)NC2(C(F)(F)F)C(=O)Nc3c2c(=O)[nH]c(=O)n3CCc2ccc(OC)c(OC)c2)cc1 (stereo unspecified) | inactive |
| COc1ccc(-c2nc3ccccc3o2)cc1OC | inactive |
| CC(=O)N1N=C(c2ccccc2)CC1c1ccccc1 (stereo unspecified) | inactive |
| Cc1ccc(/C=N/NC(=O)NN(C)c2ncc(C(F)(F)F)cc2Cl)cc1 | inactive |
| CCOC(=O)c1ccc(NC(=S)N2CCCC(C(=O)N3CCCC3)C2)cc1 (stereo unspecified) | inactive |
| Cc1ccc(-c2nc3ccccc3c(=O)o2)cc1 | inactive |
| Cc1ccc(-n2c(SCC(N)=O)nnc2-c2ccco2)cc1 | inactive |
| CC1CCC(NS(=O)(=O)c2ccc3c(c2)n(C)c(=O)c(=O)n3C)CC1 (stereo unspecified) | inactive |
| Cc1ccc(C(C)NC(=O)Cc2cccs2)c(C)c1 (stereo unspecified) | inactive |
| COc1ccc(/C=C/C(=O)Nc2ccc3nc4n(c(=O)c3c2)CCCC4)cc1OC | inactive |
| CC12CNCC(C)(CN(C3(O)C(=O)Nc4ccc(Br)cc43)C1)C2=O (stereo unspecified) | inactive |
| O=C(Nc1nc2ccccc2[nH]1)c1cc2ccccc2o1 | inactive |
| CCOc1ccc(S(=O)(=O)N2CCCCC2)c(C)c1C | inactive |
| COc1ccccc1NC(=O)N(c1c(N)n(Cc2ccccc2)c(=O)[nH]c1=O)C1CCCC1 | inactive |
| Cc1ccc(-c2[nH]c3ccccc3c2SCCN)cc1 | inactive |
| Cc1ccc2nc(-c3cccc(Br)c3)cc(C(=O)NC3=NCCS3)c2c1 | inactive |
| COc1ccc(CNCCc2c[nH]c3ccccc23)c(OC)c1OC | inactive |
| O=C(NC(Cc1c[nH]c2ccccc12)C(=O)O)/C(=C/c1ccc(F)cc1)NC(=O)c1ccccc1 (stereo unspecified) | inactive |
| CCCc1cc2c(cc1NC(=O)c1ccco1)OCO2 | inactive |
| CSc1ccc(CNCCCSc2ncccn2)cc1 | inactive |
| COc1ccc(N2CCN(C3CCCN(Cc4ccc(F)cc4)C3)CC2)cc1 (stereo unspecified) | inactive |
| Cc1nc2ccc(Br)cn2c1C(=O)N/N=C\c1ccc(C(C)C)cc1 | inactive |
| COc1ccc(CC(=O)NNC(=O)CCc2ccccc2)cc1OC | inactive |

| SMILES | activity change, negative = inhibition |
| --- | --- |
| CC(C)CN1CCN(Cc2cccc3c2OCO3)CC1CCO (stereo unspecified) | inactive |
| O=C(NC1CCCN(Cc2ccc(Cl)cc2)C1)c1cccc(N2CCCC2=O)c1 (stereo unspecified) | inactive |
| CCC(=O)N1CCC(C(N)=O)(N2CCCCC2)CC1 | inactive |
| CN(CC1CCCO1)S(=O)(=O)c1ccc(C(=O)Nc2ccc([N+](=O)[O-])cc2)cc1 (stereo unspecified) | inactive |
| CCc1nc2ccccc2c(C(=O)Oc2cccc3cccnc23)c1C | inactive |
| CCCCN(CCCC)CCNC(=O)c1ccc2nc(-c3ccccc3NC(C)=O)c(=O)[nH]c2c1 | inactive |
| COc1ccc(NC(=O)c2ccc3c(c2)NC(=O)CO3)cc1OC | inactive |
| COc1ccc(C(=O)Nc2nccs2)cc1 | inactive |
| COc1ccc(CCn2c(=S)[nH]c3ccc(N4CCOCC4)cc3c2=O)cc1OC | inactive |
| O=C(NCc1cccnc1)/C(=C/c1ccc(-c2cccc(C(F)(F)F)c2)o1)NC(=O)c1ccccc1 | inactive |
| CCOC(=O)Cn1ncn(-c2ccc(OC(F)(F)F)cc2)c1=O | inactive |
| CCCn1nnnc1NCc1cc(Br)ccc1OC | inactive |
| Cc1cc(NC(=O)CSc2nnc(-c3ccccc3)c(-c3ccccc3)n2)no1 | inactive |
| COc1ccccc1NC(=O)c1c([N+](=O)[O-])cnn1C | inactive |
| O=C(NCc1ccccc1)c1cc2ccc(O)cc2oc1=O | inactive |
| C(=N\N1CCOCC1)/c1nc(-c2ccccc2)n2ccccc12 | inactive |
| COc1ccc(CN2CCCC(N3CCN(c4cccc(Cl)c4)CC3)C2)cc1OC (stereo unspecified) | inactive |
| O=C1c2ccccc2C(O)N1c1ccccc1 (stereo unspecified) | inactive |
| O=C(NC1CCCCCCC1)c1cc([N+](=O)[O-])ccc1Cl | inactive |
| COC(=O)C1CCN(C(=O)/C(C)=C\c2ccccc2)CC1 | inactive |
| CC1Cc2ccccc2N1C(=O)CNc1ccccc1N1CCCCC1 (stereo unspecified) | inactive |
